Assays:
Type in all cases: cell-based
Parameters in all cases: unit not given here
[1] = tested on: Haemophilus influenzae Holt; experiment: MIC, standard agar-dilution assay (Table II); details: ampicillin-sensitive strain
Method: (§1) The MIC's in Table II were determined by standard agar-dilution assays. The MIC's in Table III were obtained using a conventional broth-dilution microtiter test.

[2] = tested on: Haemophilus influenzae R252; experiment: MIC, standard agar-dilution assay (Table II); details: Haemophilus influenzae R252, ampicillin-resistant strain
Method: as §1

[3] = tested on: Staphylococcus aureus S13E; experiment: MIC, standard agar-dilution assay (Table II)
Method: as §1

[4] = tested on: Staphylococcus aureus V41; experiment: MIC, standard agar-dilution assay (Table II); details: Staphylococcus aureus V41, penicillin-resistant strain
Method: as §1

[5] = tested on: Staphylococcus aureus X1.1; experiment: MIC, standard agar-dilution assay (Table II)
Method: as §1

[6] = tested on: Staphylococcus aureus X400; experiment: MIC, standard agar-dilution assay (Table II); details: Staphylococcus aureus X400, methicillin-resistant strain
Method: as §1

[7] = tested on: Staphylococcus epidermidis EPI1; experiment: MIC, standard agar-dilution assay (Table II)
Method: as §1

[8] = tested on: Staphylococcus epidermidis EPI2; experiment: MIC, standard agar-dilution assay (Table II)
Method: as §1

[9] = tested on: Streptococcus Group D 9960; experiment: MIC, standard agar-dilution assay (Table II)
Method: as §1

[10] = tested on: Streptococcus Group D X66; experiment: MIC, standard agar-dilution assay (Table II)
Method: as §1

[11] = tested on: Streptococcus pneumoniae Park I; experiment: MIC, standard agar-dilution assay (Table II)
Method: as §1

[12] = tested on: Streptococcus pyogenes C203; experiment: MIC, standard agar-dilution assay (Table II)
Method: as §1

Mycoplasma gallisepticum = experiment: MIC, broth-dilution microtiter test (Table III)
Method: as §1

Mycoplasma hyorhinis = experiment: MIC, broth-dilution microtiter test (Table III)
Method: as §1

Mycoplasma synoviae = experiment: MIC, broth-dilution microtiter test (Table III)
Method: as §1

[13] = tested on: Pasteurella haemolytica 22C; experiment: MIC, broth-dilution microtiter test (Table III)
Method: as §1

[14] = tested on: Pasteurella haemolytica 23C; experiment: MIC, broth-dilution microtiter test (Table III)
Method: as §1

[15] = tested on: Pasteurella haemolytica 41D; experiment: MIC, broth-dilution microtiter test (Table III)
Method: as §1

[16] = tested on: Pasteurella multocida 17E; experiment: MIC, broth-dilution microtiter test (Table III); details: bovine isolate
Method: as §1

[17] = tested on: Pasteurella multocida 22A; experiment: MIC, broth-dilution microtiter test (Table III)
Method: as §1

[18] = tested on: Pasteurella multocida 40G; experiment: MIC, broth-dilution microtiter test (Table III)
Method: as §1

[19] = tested on: Pasteurella multocida 60A; experiment: MIC, broth-dilution microtiter test (Table III); details: avian isolate
Method: as §1

[20] = tested on: Pasteurella multocida 68C; experiment: MIC, broth-dilution microtiter test (Table III)
Method: as §1

Staphylococcus aureus = experiment: MIC, broth-dilution microtiter test (Table III)
Method: as §1

Streptococcus sp. 80 = experiment: MIC, broth-dilution microtiter test (Table III)
Method: as §1

Row | Compound | minimal inhibitory concentration (MIC) [3] | minimal inhibitory concentration (MIC) [4] | minimal inhibitory concentration (MIC) [5] | minimal inhibitory concentration (MIC) [6] | minimal inhibitory concentration (MIC) [7] | minimal inhibitory concentration (MIC) [8] | minimal inhibitory concentration (MIC) [9] | minimal inhibitory concentration (MIC) [10] | minimal inhibitory concentration (MIC) [11] | minimal inhibitory concentration (MIC) [12] | minimal inhibitory concentration (MIC) (Mycoplasma gallisepticum) | minimal inhibitory concentration (MIC) (Mycoplasma hyorhinis) | minimal inhibitory concentration (MIC) (Mycoplasma synoviae) | minimal inhibitory concentration (MIC) [13] | minimal inhibitory concentration (MIC) [14] | minimal inhibitory concentration (MIC) [15] | minimal inhibitory concentration (MIC) [16] | minimal inhibitory concentration (MIC) [17] | minimal inhibitory concentration (MIC) [18] | minimal inhibitory concentration (MIC) [19] | other results
1 | CCC1OC(=O)CC(O)C(C)C(OC2OC(C)C(O)C(N(C)C)C2O)C(CC=O)CC(C)C(=O)C=CC(C)=CC1COC(=O)CCCCc1ccccc1 (stereo not shown) [Compound 61] | 0.25 | 0.25 | 0.25 | 0.25 | 0.25 | 0.25 | 0.25 | 0.25 | 0.06 | 0.25 | 0.78 | 6.25 | 1.56 | 12.5 | 12.5 | 6.25 | 6.25 | 6.25 | 6.25 | 3.12 | minimal inhibitory concentration (MIC) [1]: 2; minimal inhibitory concentration (MIC) [2]: 2; minimal inhibitory concentration (MIC) [20]: 6.25; minimal inhibitory concentration (MIC) (Staphylococcus aureus): 1.56; minimal inhibitory concentration (MIC) (Streptococcus sp. 80): 1.56
2 | CCC1OC(=O)CC(O)C(C)C(OC2OC(C)C(OC(=O)c3ccccc3)C(N(C)C)C2OC(=O)c2ccccc2)C(CC=O)CC(C)C(=O)C=CC(C)=CC1CO (stereo not shown) [Compound 5, 2',4'-Di-O-benzoyl-OMT] | 32 | 32 | 8 | 64 | 8 | 4 | 8 | 8 | 0.5 | 2 | 12.5 | 50 | 12.5 | > 50 | > 50 | > 50 | 50 | > 50 | 50 | 50 | minimal inhibitory concentration (MIC) [1]: 64; minimal inhibitory concentration (MIC) [2]: 64; minimal inhibitory concentration (MIC) [20]: 25; minimal inhibitory concentration (MIC) (Staphylococcus aureus): 6.25; minimal inhibitory concentration (MIC) (Streptococcus sp. 80): 3.12
3 | CCC1OC(=O)CC(O)C(C)C(OC2OC(C)C(O)C(N(C)C)C2OC(C)=O)C(CC=O)CC(C)C(=O)C=CC(C)=CC1COC(=O)c1ccc2ccccc2c1 (stereo not shown) [Compound 58] | 0.25 | 0.5 | 0.25 | 0.5 | 0.25 | 0.5 | 0.5 | 0.25 | 0.03 | 0.125 | < 0.05 | 6.25 | 0.78 | 12.5 | 6.25 | 6.25 | 3.12 | 6.25 | 3.12 | 3.12 | minimal inhibitory concentration (MIC) [1]: 2; minimal inhibitory concentration (MIC) [2]: 1; minimal inhibitory concentration (MIC) [20]: 1.56; minimal inhibitory concentration (MIC) (Staphylococcus aureus): 1.56; minimal inhibitory concentration (MIC) (Streptococcus sp. 80): 0.78
4 | CCC1OC(=O)CC(O)C(C)C(OC2OC(C)C(OC(=O)CC(C)C)C(N(C)C)C2OC(C)=O)C(CC=O)CC(C)C(=O)C=CC(C)=CC1COC(=O)CC(C)C (stereo not shown) [Compound 50, 2'-O-Acetyl-4',23-di-O-isovaleryl-OMT] | 1 | 2 | 1 | 2 | 1 | 1 | 1 | 1 | 0.5 | 1 | 0.195 | 6.25 | 1.56 | 25 | 25 | 25 | 12.5 | 25 | 3.12 | 6.25 | minimal inhibitory concentration (MIC) [20]: 6.25; minimal inhibitory concentration (MIC) (Staphylococcus aureus): 0.39; minimal inhibitory concentration (MIC) (Streptococcus sp. 80): 0.39
5 | CCC1OC(=O)CC(O)C(C)C(OC2OC(C)C(OC(=O)CC(C)C)C(N(C)C)C2OC(C)=O)C(CC=O)CC(C)C(=O)C=CC(C)=CC1COC(C)=O (stereo not shown) [Compound 51, 2',23-Di-O-Acetyl-4'-O-isovaleryl-OMT] | 0.5 | 1 | 1 | 1 | 0.5 | 1 | 1 | 1 | 0.125 | 0.25 | < 0.05 | 6.25 | 0.78 | 3.12 | 3.12 | 3.12 | 3.12 | 6.25 | 3.12 | 3.12 | minimal inhibitory concentration (MIC) [20]: 3.12; minimal inhibitory concentration (MIC) (Staphylococcus aureus): 0.78; minimal inhibitory concentration (MIC) (Streptococcus sp. 80): 0.78
6 | CCC1OC(=O)CC(O)C(C)C(OC2OC(C)C(O)C(N(C)C)C2OC(C)=O)C(CC=O)CC(C)C(=O)C=CC(C)=CC1COC(=O)C(Cl)(Cl)Cl (stereo not shown) [Compound 77] | 1 | 2 | 1 | 2 | 1 | 2 | 1 | 1 | 0.25 | 0.25 | 0.78 | 3.12 | 0.78 | 12.5 | 12.5 | 12.5 | 3.12 | 50 | 25 | 3.12 | minimal inhibitory concentration (MIC) [2]: 1; minimal inhibitory concentration (MIC) [20]: 25; minimal inhibitory concentration (MIC) (Staphylococcus aureus): 1.56; minimal inhibitory concentration (MIC) (Streptococcus sp. 80): 0.78
